*1 amine or outer side, *2 acyl side, *3 side chain or, on linkers, in order; H or OH if unused. Where a SMILES comes first, the peptide text is derived from it. Bridges are numbered along the chain shown (N, C = ends). [ ]: non-standard residue; d: D form. The star is where a group is joined. NH(1-deoxy-D-glucityl) = OC[C@@H](O)[C@@H](O)[C@H](O)[C@@H](O)CN*; DOTA = O=C(O)CN1CCN(CC(=O)O)CCN(CC(=O)*)CCN(CC(=O)O)CC1; Trp(5-Cl) = N[C@@H](Cc1c[nH]c2ccc(Cl)cc12)C(=O)O; Pyridine(2,6-diCH2) = c1cc(C[*:1])nc(C[*:2])c1; Pro(4R-NH2) = N[C@H]1CN[C@H](C(=O)O)C1; Glutaryl = O=C(CCCC(=O)[*:2])[*:1]; X1 = O=C(CN1CCC(N[*:1])CC1)[*:2]; Api = NC1(C(=O)O)CCNCC1
Molecular target: T1, human GIP receptor (bioGIPR) (Homo sapiens, UniProt P48546)
T1 construct: Biotinylate extracellular of the human GIP receptor (bioGIPR, Proteros biostructures GmbH, lot #02/2b); purchased Proteros biostructures GmbH lot #02/2b
T1 sequence (P48546 22-138 limits assumed): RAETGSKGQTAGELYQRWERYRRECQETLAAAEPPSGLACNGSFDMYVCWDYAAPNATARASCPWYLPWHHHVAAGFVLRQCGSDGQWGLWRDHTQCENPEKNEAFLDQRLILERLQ
Assay: Surface plasmon resonance (SPR) based binding assay
Details: Single Cycle Kinetic mode, 25° C.
Summary of the method: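 Binding was measured at 25 °C by single-cycle kinetics against a reference flow cell, with blank-run and drift correction, after capturing biotinylated GIPR extracellular domain to ~3500 RU. Running buffer: HBST, 0.1% DMSO. A 1:1 Langmuir model gave kinetic rates, KD, t1/2 and pKD.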

CC[C@H](C)[C@@H]1NC(=O)[C@H](CC(C)C)NC(=O)C2(CCN(C(=O)CN3CCN(CC(=O)O)CCN(CC(=O)O)CCN(CC(=O)O)CC3)CC2)NC(=O)[C@@H](NC(=O)[C@@H](CC(C)C)NC(=O)[C@H](CCC(=O)O)NC(=O)[C@@H]2C[C@@H](N)CN2C(=O)[C@H](Cc2c[nH]c3ccc(Cl)cc23)NC(=O)[C@H](Cc2c[nH]c3ccccc23)NC(=O)[C@H](CC(=O)O)NC(=O)CCCC(=O)NC[C@H](O)[C@@H](O)[C@H](O)[C@H](O)CO)CSCc2cccc(n2)CSC[C@@H](C(=O)NC2CCN(CC(=O)N[C@H](CCC(=O)NC[C@H](O)[C@@H](O)[C@H](O)[C@H](O)CO)C(N)=O)CC2)NC1=O [GIP-001, AGLU-Glutar-Asp-Trp-5Clw-Tap-Glu-leu-[Cys(2Lut)-Apc(DOTA)-Leu-Ile-Cys]-APAc-glu(AGLU)-NH2] ({NH(1-deoxy-D-glucityl)-Glutaryl}-DW[Trp(5-Cl)][Pro(4R-NH2)]E[dL]C[Api](DOTA)LIC[X1][dE](NH(1-deoxy-D-glucityl))-NH2; linker 7-11 via Pyridine(2,6-diCH2))
t1/2 Category (SPR dissociation half-life): A (t1/2 values>15 min) | Kd (SPR, 1:1 Langmuir binding model, read-out: pKD Category (converted)): < 1 nM
